# Measurements as given in patent US6680344B1, “Method of treating hair loss using diphenylmethane derivatives” (The University of Texas Southwestern Medical Center, priority 1999, dated 2004).
# System: heart/body weight ratio of male Sprague Dawley rats
# Assay: Cardiotoxicity assay (heart-to-body weight ratio)
# Assay type: in vivo, rat
# Conditions: 250 μg/kg subcutaneously once daily for 28 days, cardiac-sparing where C is less than 1.3
# Text: The cardiotoxicity assay measures the potential of a test compound to adversely affect the cardiovascular system. As thyroid hormone (T3) damages the cardiovascular system, the heart enlarges. See, e.g., Gomberg-Maitland et al., “Thyroid hormone and Cardiovascular Disease”, American Heart Journal, Vol. 135(2), pp. 187-196 (1998); Klein and Ojamaa, “Thyroid Hormone and the Cardiovascular System”, Current Opinion in Endocrinology and Diabetes, Vol. 4, pp.341-346 (1997); and Klemperer et al., “Thyroid Hormone Therapy and Cardiovascular Disease”, Progress in Cardiovascular Diseases, Vol. 37 (4), pp. 329-336 (1996). This increases the weight of the heart relative to whole body weight. The cardiotoxicity assay herein below is used to test compounds for potentially adverse cardiac effects by measuring their effect on the heart-to-body weight ratio.
# Two groups each of six male Sprague Dawley rats (Harlan Sprague Dawley, Inc., Indianapolis, Ind.) (each weighing from approximately 220 grams to 235 grams) are utilized. The first group is a vehicle control group and the second group is a test compound group. The length of the assay is 30 days, with treatment of vehicle or test compound in vehicle daily for 28 of those days as described below.
# Prior to initiation of the assay, each rat is allowed to acclimate to standard environmental conditions for 5 days. […]
compound,measurement,value
"N[C@@H](Cc1cc(I)c(Oc2cc(I)c(O)c(I)c2)c(I)c1)C(=O)O [T4, thyroxine]","cardiac-sparing classification (index C = RT/RV, heart/body ratio of test compound group over vehicle control group)",not cardiac-sparing
